These results are taken from article PMC10020666, “Oxidation modulates LINGO2-induced inactivation of large conductance, Ca^2+-activated potassium channels” (The Journal of Biological Chemistry, 2023).

“Also recorded” adds a separate entry of the source. Like-named read-outs stand apart in the source and are kept apart here. Square brackets hold non-standard residues; d marks the D form. Peptide text beside a SMILES is read from it. Met(O) = CS(=O)CC[C@H](N)C(=O)O

Experiment [1] deals with T1, BKα currents (BK channels) in HEK cell patches (Oryctolagus cuniculus, UniProt Q9BG98).
T1 construct: expressed in transfected cells; host or cells: HEK293 cells, transient transfection with lipofectamine (BKα cDNA plus GFP plasmid)
T1 sequence (Q9BG98 whole entry): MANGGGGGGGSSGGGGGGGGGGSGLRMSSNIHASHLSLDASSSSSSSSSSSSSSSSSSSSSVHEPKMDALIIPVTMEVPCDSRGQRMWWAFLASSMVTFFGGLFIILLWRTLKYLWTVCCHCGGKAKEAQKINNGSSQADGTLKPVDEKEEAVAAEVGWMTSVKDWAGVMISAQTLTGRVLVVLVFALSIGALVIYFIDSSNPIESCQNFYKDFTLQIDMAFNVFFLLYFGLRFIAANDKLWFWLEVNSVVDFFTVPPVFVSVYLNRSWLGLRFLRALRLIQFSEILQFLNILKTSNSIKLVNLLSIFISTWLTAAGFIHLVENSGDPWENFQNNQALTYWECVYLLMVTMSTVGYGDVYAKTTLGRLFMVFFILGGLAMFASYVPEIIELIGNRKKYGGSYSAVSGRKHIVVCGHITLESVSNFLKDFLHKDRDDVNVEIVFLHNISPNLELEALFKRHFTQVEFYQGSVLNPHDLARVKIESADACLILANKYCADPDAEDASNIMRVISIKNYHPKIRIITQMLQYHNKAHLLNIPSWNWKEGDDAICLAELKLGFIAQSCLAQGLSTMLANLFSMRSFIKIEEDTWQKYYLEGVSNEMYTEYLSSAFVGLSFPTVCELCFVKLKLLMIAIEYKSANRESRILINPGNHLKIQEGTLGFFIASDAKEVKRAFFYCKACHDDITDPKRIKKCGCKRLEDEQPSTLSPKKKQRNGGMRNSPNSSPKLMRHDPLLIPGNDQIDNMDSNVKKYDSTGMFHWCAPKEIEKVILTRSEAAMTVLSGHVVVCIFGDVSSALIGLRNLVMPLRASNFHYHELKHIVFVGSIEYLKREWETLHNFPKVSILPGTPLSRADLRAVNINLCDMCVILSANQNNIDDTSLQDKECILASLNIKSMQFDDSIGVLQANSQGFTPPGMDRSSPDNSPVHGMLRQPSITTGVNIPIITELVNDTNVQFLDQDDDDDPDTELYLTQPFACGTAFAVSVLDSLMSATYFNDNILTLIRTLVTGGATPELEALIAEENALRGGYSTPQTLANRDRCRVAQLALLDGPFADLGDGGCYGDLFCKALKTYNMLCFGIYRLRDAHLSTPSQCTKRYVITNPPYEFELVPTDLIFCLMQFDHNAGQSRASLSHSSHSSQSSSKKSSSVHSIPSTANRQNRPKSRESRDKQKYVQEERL
Nature of the experiment: Inhibition of BKα currents by synthetic LINGO2 tail peptides (excised inside-out patch clamp). As to conditions: 1 μM Ca2+; for IC50Last5ms increase compared to WT LINGO2 peptide / 95% Confidence Intervals of IC50Last5ms: +160 mV; for IC50Last5ms increase compared to WT LINGO2 peptide: p < 0.001, extra sum of squares F-test; for IC50: step to +160 mV for 100 ms from -60 mV, inside-out patches, 37 °C, pH 7.2, Hill-Langmuir fit, mean ± SD; for Inactivation of BK currents by peptide: step to +160 mV, rate compared at 1 μM peptide. It is filed as cell-based, rabbit. As to the method: (§1) All excised patch experiments were performed at 37 °C in 140 mM symmetrical K^+ solutions which contained 140 mM KCl, 10 mM glucose, 10 mM Hepes, and either 1 mM ethylene glycol-bis(β-amino ether)-N,N,N′,N′-tetraacetic acid (EGTA (for free [Ca^2+] 100 nM to 300 nM) or 1 mM hydroxyethylethylenediaminetriacetic acid (HEDTA for free [Ca^2+] 1 μM to 10 μM) and the pH of all solutions was adjusted to 7.2 with KOH. These solutions were made with double-distilled, deionized, filtered water from a MilliQ water purification system. The pipette solution contained 100 nM free Ca^2+. We used “Chelator” (https://www.ru.nl/animal/research/chelator/) to calculate the total amount of Ca^2+ required, as per Schoenmakers et al., ([40]) and free Ca^2+ concentrations were checked with a Ca^2+ sensitive electrode.
(§2) During experiments, the dish containing HEK cells was superfused with Hanks solution, which contained (in mM) 129.8 Na^+, 5.8 K^+, 135 Cl^-, 4.17 HCO3^-, 0.34 HPO4^2-, 0.44 H2PO4^-, 1.8 Ca^2+, 0.9 Mg^2+, 0.4 SO4^2-, 10 glucose, 2.9 sucrose, and 10 Hepes, and its pH was adjusted to 7.4 with NaOH. In addition, the patch under study was continuously superfused by means of a close delivery system consisting of a pipette (tip diameter 200 μm) placed approximately 300 μm away from the cell. This could be switched, with a dead-space time of around 5 s, to a solution containing a drug.
(§3) Electrodes were pulled from Corning borosilicate glass (1.5 mm O.D. × 0.86 mm I.D.) using a Sutter P-97 pipette puller and fire polished using a Narashige MF 83 microforge. Pipettes had resistances of 2 to 5 MΩ when filled with recording solutions and series resistance was compensated by up to 80%. Standard single-channel patch clamp recording methods were used. Voltage clamp commands were delivered via an Axopatch 200B patch clamp amplifier (Axon Instruments) connected to a Digidata 1322A AD/DA converter (Axon Instruments) interfaced to computers running pClamp software (Axon Instruments). Data was acquired at 100 KHz and filtered at 2 KHz or 5 KHz. Patches were held at either −60 mV or −100 mV and depolarized in 20 mV increments to 200 mV. Residual capacitance and leakage currents were subtracted using either a P/4 protocol or offline by manual leak subtraction.
(§4) The human LINGO2 transcript used [NM_001354575.2] was untagged in a pcDNA 3.1 vector (VectorBuilder). The α subunit of the rabbit BK channel was isolated from rabbit urethral smooth muscle and cloned using the pcDNA TOPO DNA cloning kit (Life Technologies). The identifiesd transcript corresponded to the ZERO variant of mouse BKα and to variant 2 (NM_002247.3) of human BKα. We used 100 ng ml^−1 cDNA for BKα only transfections, whereas a 100:500 ng ml^−1 cDNA ratio was used for BKα:LINGO2 and BKα:LINGO1 cotransfections for inside-out patch recordings. GFP (150 ng ml^−1) was included in all transfections except those used for Figure 2, C and D. cDNA was transiently transfected into HEK cells using lipofectamine. Site-directed mutagenesis used the Phusion kit (Thermo Fisher Scientific) method ([41]) and all mutations were confirmed by sequencing.
(§5) HEK293 cells were cultured in Dulbecco's modified Eagle's medium + MEM media containing 10% fetal bovine serum and 1% Penicillin-Streptomycin antibiotics at 37 °C, and 95% humidifying incubator containing 5% CO2. Subculturing was done by 0.05% Trypsin-EDTA solution.
Concentration–effect data were fitted with a Hill–Langmuir equation:[4] I/Icontrol=1/{1+10^ˆ(log[Drug]−logIC50)} where, I was the current recorded in the drug, Icontrol was the current in the absence of drug, IC50 was the half-maximal effective concentration, and [Drug] was the concentration variable.
All data is presented as mean ± SD and was analyzed with Prism software (GraphPad). Individual data points are also shown in bar charts. […]

Experiment [2] deals with BK:LINGO2 channels. In words: Effect of oxidizing/reducing agents on BK:LINGO2 currents (inside-out patch, step to +160 mV). It is filed as cell-based, rabbit BKα, human LINGO2. As to the method: as §1, §2, §3, §4, §5
All data is presented as mean ± SD and was analyzed with Prism software (GraphPad). Individual data points are also shown in bar charts. Statistical differences were assessed using either paired or unpaired nonparametric tests (Wilcoxin signed-rank test, Mann–Whitney test), or the extra sum of squares F-test, as appropriate. Comparisons of three or more nonparametric data sets used Friedman’s test followed by Dunn’s test for multiple comparisons, whereas ANOVA was used for three or more parametric data sets. p < 0.05 was taken as significant.

Experiment [3] deals with α subunit of the rabbit BK channel (large conductance, Ca2+ and voltage-activated K+ channel) (rabbit).
Setting [4] is: n = 5 (M605 oxidized), 6 (M603 oxidized), 7 (both), read-out: IC50Last5ms (half maximal block of current amplitude in last 5 ms of pulse).

Take `CC[C@H](C)[C@H](NC(=O)[C@H](CCSC)NC(=O)[C@H](CCCCN)NC(=O)[C@H](CC[S+](C)[O-])NC(=O)[C@H](CC(N)=O)NC(=O)[C@H](Cc1ccccc1)NC(=O)[C@H](CCCNC(=N)N)NC(=O)[C@H](CCCNC(=N)N)NC(C)=O)C(N)=O` (stereo partly drawn) [Ac-RRFNM(O)KMI-NH2] (Ac-RRFN[Met(O)]KMI-NH2): in experiment [1], the “IC50Last5ms increase compared to WT LINGO2 peptide” value is recorded as ~27 fold and the “Inactivation of BK currents by peptide” value was “slower than that of the WT peptide”. For the same molecule, in experiment [1] (setting [4]), the IC50 stood at 6900 ± 500 nM.

`O[C@@H](CS)[C@@H](O)CS` [DTT]: in experiment [2] (100 μM DTT, 1-5 min, 100 nM Ca2+, 5 to 7 experiments), the “Effect of DTT alone on peak or sustained currents” value was “failed to alter the peak (black circles) or sustained (purple diamonds) currents”. Also, in experiment [2] (100 μM DTT, then with Ch-T 5-7 min, 100 nM Ca2+, 5 to 7 experiments), the “Prevention of Ch-T effects by DTT pretreatment / continuous presence” value is reported as “not prevented; also recorded: the effects of Ch-T were unaltered in the continuous presence of DTT; also recorded: resistant to treatment with the cysteine-specific reducing agent DTT”. In experiment [2] (200 μM Ch-T 1-4 min, then Ch-T + DTT 4-7 min, 4 to 7 experiments), the “Reversal of Ch-T effects by DTT coapplication” value is listed as “unable to reverse the effects of Ch-T”.

`CC[C@H](C)[C@H](NC(=O)[C@H](CC[S+](C)[O-])NC(=O)[C@H](CCCCN)NC(=O)[C@H](CC[S+](C)[O-])NC(=O)[C@H](CC(N)=O)NC(=O)[C@H](Cc1ccccc1)NC(=O)[C@H](CCCNC(=N)N)NC(=O)[C@H](CCCNC(=N)N)NC(C)=O)C(N)=O` (stereo partly drawn) [Ac-RRFNM(O)KM(O)I-NH2] (Ac-RRFN[Met(O)]K[Met(O)]I-NH2): the “IC50Last5ms increase compared to WT LINGO2 peptide” value in experiment [1] is ~50 fold. Besides, the IC50 in experiment [1] (setting [4]) is 13900 ± 1100 nM. In addition, the “Inactivation of BK currents by peptide” value in experiment [1] is reported as “greatly reduced”; in experiment [1] (listed as RRFNM(O)KM(O)I), “inactivation was practically abolished at all concentrations tested”; in experiment [1] (listed as peptide containing Met(O) at both positions), “time-dependent inactivation was practically abolished”.

Take `CC[C@H](C)[C@H](NC(=O)[C@H](CC[S+](C)[O-])NC(=O)[C@H](CCCCN)NC(=O)[C@H](CCSC)NC(=O)[C@H](CC(N)=O)NC(=O)[C@H](Cc1ccccc1)NC(=O)[C@H](CCCNC(=N)N)NC(=O)[C@H](CCCNC(=N)N)NC(C)=O)C(N)=O` (stereo partly drawn) [Ac-RRFNMKM(O)I-NH2] (Ac-RRFNMK[Met(O)]I-NH2): the “95% Confidence Intervals of IC50Last5ms” value in experiment [1] (n = 5-7) is 2000 to 2700 nM. For the same molecule, the IC50 in experiment [1] (setting [4]) came to 2300 ± 700 nM. Also, in experiment [1], the “Inactivation of BK currents by peptide” value is on record as “the rate of inactivation was slower compared to that observed with the WT peptide”.

As to Ac-RRFNMKMI-NH2 [Ac-RRFNMKMI-NH2], the “95% Confidence Intervals of IC50Last5ms” value in experiment [1] (n = 6) lay within 223 to 303 nM. Also, the IC50 in experiment [1] (n = 6, read-out: IC50Last5ms (half maximal block of current amplitude in last 5 ms of pulse)) was determined as 260 ± 78 nM. Also, the “Inactivation of BK currents by peptide” value in experiment [1] is “caused inactivation, the rate of which was concentration-dependent”.

B1: LINGO2 tail peptide Ac-RRFNM(O)KM(O)I-NH2 (peptide)
peptide: Ac-RRFN[Met(O)]K[Met(O)]I-NH2
SMILES: CC[C@H](C)[C@H](NC(=O)[C@H](CCS(C)=O)NC(=O)[C@H](CCCCN)NC(=O)[C@H](CCS(C)=O)NC(=O)[C@H](CC(N)=O)NC(=O)[C@H](Cc1ccccc1)NC(=O)[C@H](CCCNC(=N)N)NC(=O)[C@H](CCCNC(=N)N)NC(C)=O)C(N)=O
With B1, in experiment [3], the IC50Last5ms: concentration of the peptide that produced half maximal block in BKα current amplitude in the last 5 ms of a pulse to +160 mV (inside-out HEK patches, 1 μM Ca2+) worked out at 13900 nM.

B2: LINGO2 tail peptide Ac-RRFNMKM(O)I-NH2 (peptide)
peptide: Ac-RRFNMK[Met(O)]I-NH2
SMILES: CC[C@H](C)[C@H](NC(=O)[C@H](CCS(C)=O)NC(=O)[C@H](CCCCN)NC(=O)[C@H](CCSC)NC(=O)[C@H](CC(N)=O)NC(=O)[C@H](Cc1ccccc1)NC(=O)[C@H](CCCNC(=N)N)NC(=O)[C@H](CCCNC(=N)N)NC(C)=O)C(N)=O
In experiment [3], B2 showed an IC50Last5ms: concentration of the peptide that produced half maximal block in BKα current amplitude in the last 5 ms of a pulse to +160 mV (inside-out HEK patches, 1 μM Ca2+) of 2300 nM.

B3: LINGO2 tail peptide Ac-RRFNM(O)KMI-NH2 (peptide)
peptide: Ac-RRFN[Met(O)]KMI-NH2
SMILES: CC[C@H](C)[C@H](NC(=O)[C@H](CCSC)NC(=O)[C@H](CCCCN)NC(=O)[C@H](CCS(C)=O)NC(=O)[C@H](CC(N)=O)NC(=O)[C@H](Cc1ccccc1)NC(=O)[C@H](CCCNC(=N)N)NC(=O)[C@H](CCCNC(=N)N)NC(C)=O)C(N)=O
Turning to B3, in experiment [3], the IC50Last5ms: concentration of the peptide that produced half maximal block in BKα current amplitude in the last 5 ms of a pulse to +160 mV (inside-out HEK patches, 1 μM Ca2+) came out at 6900 nM.

Molecule Ac-RRFNMKMI-NH2 [LINGO2 tail peptide Ac-RRFNMKMI-NH2] gave an IC50Last5ms: concentration of the peptide that produced half maximal block in BKα current amplitude in the last 5 ms of a pulse to +160 mV (inside-out HEK patches, 1 μM Ca2+) in experiment [3] of 260 nM.
